Test results from publication PMC8187479, “Sugar phosphate activation of the stress sensor eIF2B” (Nature Communications, 2021).

target: T1, eIF2Bα (Homo sapiens, UniProt Q14232); test: MIDAS (mass spectrometry integrated with equilibrium dialysis) metabolite binding screen; conditions: MIDAS metabolite binding screen with eIF2Bα; sheet "eIF2Ba"
T1 construct: made in house; host or cells: E. coli BL21(DE3)
T1 sequence (Q14232 1-305): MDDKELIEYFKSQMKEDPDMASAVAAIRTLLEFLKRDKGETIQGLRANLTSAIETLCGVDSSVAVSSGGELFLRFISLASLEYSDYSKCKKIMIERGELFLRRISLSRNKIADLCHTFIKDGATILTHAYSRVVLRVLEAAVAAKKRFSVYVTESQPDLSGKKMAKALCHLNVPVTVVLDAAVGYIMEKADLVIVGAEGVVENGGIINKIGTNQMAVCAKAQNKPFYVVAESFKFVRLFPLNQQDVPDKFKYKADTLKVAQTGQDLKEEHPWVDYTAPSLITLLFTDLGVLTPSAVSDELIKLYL
Experimental: Metabolites were combined into four defined screening pools. […] To the reverse side, 300 μL of 50 μM per metabolite pool was aliquoted and sealed (metabolite chamber). Loaded dialysis plates were placed in the dark at 4 °C on a rotating shaker (120 rpm) and incubated for 40 h. Post-dialysis, metabolites were isolated from each chamber by cold methanol extraction. Each sample was analyzed in technical triplicate by FIA-MS on a SCIEX X500R QTOF MS with interspersed blanks injections. The input metabolite pools were assayed at the beginning, middle, and end of each MS method batch for QC and normalization.
MIDAS FIA-MS spectra were processed in SCIEX OS 1.6 software to determine metabolite abundances by integrating the mean area under the curve for each extracted ion chromatogram. For each dialysis replicate, log2(fold change) for each metabolite was calculated as the difference between the log2 abundance in the protein chamber and metabolite chamber. For each technical triplicate, up to one outlier was removed using a z-score cutoff of five (<0.1% of observations). The corrected technical replicates were collapsed to one mean fold-change summary per protein-metabolite pair. To remove fold-change variation that was not specific to a given metabolite-protein pair, the first three principal components of the total screening dataset were removed on a per metabolite pool basis by subtracting the projection of the first 3 principal components, creating log2(corrected fold change). Protein-metabolite z-scores were determined by comparing the target protein-metabolite log2(corrected fold change) to a no-signal model for that metabolite using measures of the central tendency (median) and standard deviation (extrapolated from the 25–75% quantiles), which are robust to the signals in the tails of a metabolite’s fold-change distribution. Z-scores were false-discovery rate controlled using Storey’s q-value (qvalue, R) and protein-metabolite interactions with q-values < 0.1 were considered significant.

Row | Compound | log2(corrected fold change)
1 | Nc1ncnc2c1ncn2[C@@H]1O[C@H](COP(=O)(O)OS(=O)(=O)O)[C@@H](OP(=O)(O)O)[C@H]1O [3-Phosphoadenosine 5-phosphosulfate] | -0.003179
2 | O=C(O)CC(O)CC(=O)O [3-hydroxypentanedioic acid] | -0.0058
3 | CC(C)C(=O)C(=O)O [3-methyl-2-oxobutyrate] | -0.0499
4 | CC(=O)CC(=O)CCC(=O)O [4,6-Dioxoheptanoic acid] | -0.02657
5 | NCCCC(=O)O [4-Aminobutanoate] | 0.0213
6 | O=C(O)CNC(=O)Cc1ccc(O)cc1 [4-Hydroxyphenylacetylglycine] | -0.008576
7 | O=C(O)Cc1cnc[nH]1 [4-Imidazoleacetic acid] | 0.01796
8 | Cc1ncc(CO)c(C(=O)O)c1O [4-Pyridoxic acid] | 0.06772
9 | CN1c2c(nc(N)[nH]c2=O)NCC1CNc1ccc(C(=O)N[C@@H](CCC(=O)O)C(=O)O)cc1 (stereo partly shown) [5-Methyltetrahydrofolic acid] | 0.02128
10 | Cc1cn([C@@H]2O[C@H](CO)[C@@H](O)[C@H]2O)c(=O)[nH]c1=O [5-Methyluridine] | 0.07915
11 | O=P(O)(O)OCC1OC(OP(=O)(O)OP(=O)(O)O)C(O)C1O [5-Phospho-D-ribose 1-diphosphate] | 0.1645
12 | C[C@H](O)[C@@H](O)[C@@H](O)[C@H](O)C(=O)O [6-Deoxy-L-galactonic acid] | -0.02256
13 | N[C@@H](C[C@@H](O)C(=O)O)C(=O)O [(4R)-4-Hydroxy-L-glutamic acid] | -0.03114
14 | CC(=O)NCC(=O)O [Acetylamino-acetic acid] | 0.03921
15 | Nc1ncnc2c1ncn2[C@@H]1O[C@H](COP(=O)(O)OP(=O)(O)OP(=O)(O)O)[C@@H](O)[C@H]1O [Adenosine triphosphate] | 0.05437
16 | Nc1ncnc2c1ncn2[C@@H]1O[C@H](CO)[C@@H](O)[C@H]1O [Adenosine] | 0.2973
17 | Nc1ncnc2c1ncn2[C@@H]1O[C@H](COP(=O)(O)OP(=O)(O)NP(=O)(O)O)[C@@H](O)[C@H]1O [Adenyl imidodiphosphate] | -0.08962
18 | OC[C@@H](O)[C@@H](O)[C@@H](O)CO [Adonitol] | 0.006339
19 | Cn1cncc1C[C@H](NC(=O)CCN)C(=O)O [Anserine] | -0.02715
20 | O=C1O[C@H]([C@@H](O)CO)C(O)=C1O [Ascorbate] | 0.01654
21 | NCCC(=O)O [Beta-alanine] | 0.0004222
22 | N[C@@H](CCCCNC(=O)CCCC[C@@H]1SC[C@@H]2NC(=O)N[C@@H]21)C(=O)O [Biocytin] | -0.00281
23 | CCCC(=O)SCCNC(=O)CCNC(=O)[C@H](O)C(C)(C)COP(=O)(O)OP(=O)(O)OC[C@H]1O[C@@H](n2cnc3c(N)ncnc32)[C@H](O)[C@@H]1OP(=O)(O)O [Butyryl coenzyme A] | 0.07019
24 | Nc1ccn([C@@H]2O[C@H](COP(=O)(O)OP(=O)(O)OCC(O)CO)[C@@H](O)[C@H]2O)c(=O)n1 (stereo partly shown) [CDP-Glycerol] | 0.002705
25 | NCCOP(=O)(O)OP(=O)(O)OC[C@H]1O[C@@H](n2ccc(N)nc2=O)[C@H](O)[C@@H]1O [CDP-ethanolamine] | -0.00979
26 | C[N+](C)(C)CCOP(=O)([O-])OC[C@H](O)CO [Choline glycerophosphate] | -0.09086
27 | O=C(O)[C@H]1C[C@@H](O)CN1 [Cis-4-Hydroxy-D-proline] | 0.008003
28 | CC(O)(CC(=O)O)C(=O)O (stereo not shown) [Citramalate] | -0.0058
29 | O=C(O)CC(O)(CC(=O)O)C(=O)O [Citric acid] | -0.01609
30 | CC(C)(COP(=O)(O)OP(=O)(O)OC[C@H]1O[C@@H](n2cnc3c(N)ncnc32)[C@H](O)[C@@H]1OP(=O)(O)O)[C@@H](O)C(=O)NCCC(=O)NCCS [Coenzyme A] | 0.05668

same assay, conditions: MIDAS screen, sheet eIF2Ba; metabolites screened in pools 1-4; p-value and q-value given

Row | Compound | log2(corrected fold change)
31 | O=C(O)C(=O)CS(=O)(=O)O [3-Sulfopyruvic acid] | -0.112
32 | NC(=O)NCCC(=O)O [3-Ureidopropionic acid] | 0.07649
33 | N=C(N)NCCCC(=O)O [4-Guanidinobutyric acid] | 0.2552
34 | O=C(O)C(=O)CC(O)C(=O)O (stereo not shown) [4-Hydroxy-2-oxoglutaric acid] | -0.1985
35 | O=C(O)c1ccc(O)cc1 [4-Hydroxybenzoic acid] | 0.1295
36 | O=C(O)Cc1ccc(O)cc1 [4-Hydroxyphenylacetic acid] | -0.07366
37 | O=C(O)C=Cc1c[nH]cn1 [4-Imidazoleacrylic acid] | -0.125
38 | CC(C)CC(=O)C(=O)O [4-Methyl-2-oxovaleric acid] | -0.05419
39 | CSCCC(=O)C(=O)O [4-Methylthio-2-oxobutanoic acid] | 0.0884
40 | O=C(O)CCCc1ccccc1 [4-Phenylbutanoic acid] | 0.03839
41 | N[C@@H](Cc1c[nH]c2ccc(O)cc12)C(=O)O [5-Hydroxy-L-tryptophan] | -0.8537
42 | COc1ccc2[nH]cc(CC(=O)O)c2c1 [5-Methoxy-3-indoleacetic acid] | -0.03075
43 | COc1ccc2[nH]cc(CCN)c2c1 [5-Methoxytryptamine] | 0.274
44 | O=C(O)[C@H](O)[C@@H](O)[C@H](O)[C@H](O)COP(=O)(O)O [6-Phosphogluconic acid] | -0.1601
45 | C[C@@H](O)CC(=O)O [(R)-3-Hydroxybutyric acid] | -0.1099
46 | C[C@H](CO)C(=O)O [(R)-Hydroxyisobutyrate] | 0.07137
47 | C[C@H](O)CC(=O)O [(S)-3-Hydroxybutyric acid] | 0.07137
48 | C[C@@H](CO)C(=O)O [(S)-Hydroxyisobutyrate] | 0.07137
49 | NC(=O)c1ncn([C@@H]2O[C@H](CO)[C@@H](O)[C@H]2O)c1N [AICAR] | 0.005355

Row | Compound | log2(corrected fold change)
50 | CC(=O)CC(=O)O [Acetoacetate] | -0.05529
51 | CC(=O)CC(=O)SCCNC(=O)CCNC(=O)[C@H](O)C(C)(C)COP(=O)(O)OP(=O)(O)OC[C@H]1O[C@@H](n2cnc3c(N)ncnc32)[C@H](O)[C@@H]1OP(=O)(O)O [Acetoacetyl coenzyme A] | 0.4297
52 | CC(=O)SCCNC(=O)CCNC(=O)[C@H](O)C(C)(C)COP(=O)(O)OP(=O)(O)OC[C@H]1O[C@@H](n2cnc3c(N)ncnc32)[C@H](O)[C@@H]1OP(=O)(O)O [Acetyl coenzyme A] | -0.09022
53 | CC(=O)OCC[N+](C)(C)C [Acetylcholine] | -0.07879
54 | Nc1ncnc2[nH]cnc12 [Adenine] | -0.2309
55 | O=C(O)C[C@H](Nc1ncnc2c1ncn2[C@@H]1O[C@H](COP(=O)(O)O)[C@@H](O)[C@H]1O)C(=O)O [Adenylosuccinic acid] | -0.03472
56 | NCCCCN=C(N)N [Agmatine] | 0.1363
57 | Nc1ccccc1C(=O)O [Anthranilate] | -0.04243
58 | C[N+](C)(C)CC=O [Betaine aldehyde hydrate] | -0.08887
59 | C[N+](C)(C)CC=O [Betaine aldehyde] | -0.1426
60 | C[N+](C)(C)CC(=O)O [Betaine] | 0.2268
61 | NCCCCCN [Cadaverine] | 0.2219
62 | C[N+](C)(C)CC(O)CC(=O)[O-] (stereo not shown) [Carnitine] | -0.03799
63 | C[N+](C)(C)CCO [Choline] | -0.1774
64 | Nc1c(C(=O)O)c2nc3c(C(=O)O)cccc3oc-2cc1=O [Cinnabarinic Acid] | -0.1918
65 | C/C(=C/C(=O)O)C(=O)O [Citraconic acid] | 0.0972
66 | CN(CC(=O)O)C(=N)N [Creatine] | 0.06671
67 | C/C=C/C(=O)SCCNC(=O)CCNC(=O)[C@H](O)C(C)(C)COP(=O)(O)OP(=O)(O)OC[C@H]1O[C@@H](n2cnc3c(N)ncnc32)[C@H](O)[C@@H]1OP(=O)(O)O [Crotonoyl coenzyme A] | -2.153
